Experimental data: publication PMC3479967 (Evidence-based Complementary and Alternative Medicine : eCAM, 2012)

What was measured:
[1] = molecular target: T1, UGT2B4 (Homo sapiens, UniProt P06133); assay: Inhibition of recombinant UGT2B4 activity (4-MU glucuronidation)
T1 sequence (P06133 24-528): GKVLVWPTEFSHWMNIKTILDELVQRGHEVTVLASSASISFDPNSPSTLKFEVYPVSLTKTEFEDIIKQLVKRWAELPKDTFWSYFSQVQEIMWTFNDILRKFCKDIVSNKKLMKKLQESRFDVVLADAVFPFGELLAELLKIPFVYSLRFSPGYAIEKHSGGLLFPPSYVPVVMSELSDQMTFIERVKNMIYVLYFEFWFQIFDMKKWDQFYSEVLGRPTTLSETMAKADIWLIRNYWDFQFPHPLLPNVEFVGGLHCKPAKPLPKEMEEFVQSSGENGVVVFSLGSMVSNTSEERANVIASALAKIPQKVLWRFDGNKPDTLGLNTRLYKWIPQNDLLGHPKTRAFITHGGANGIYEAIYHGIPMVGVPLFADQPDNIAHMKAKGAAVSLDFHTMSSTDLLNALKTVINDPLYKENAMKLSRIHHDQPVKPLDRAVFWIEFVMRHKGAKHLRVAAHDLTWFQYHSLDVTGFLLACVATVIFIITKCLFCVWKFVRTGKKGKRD
Experimental: A panel of recombinant human UGT supersomes (UGT1A1, UGT1A3, UGT1A4, UGT1A6, UGT1A7, UGT1A8, UGT1A9, UGT1A10, UGT2B4, UGT2B7, UGT2B15, and UGT2B17) expressed in baculovirus-infected insect cells were purchased from BD Gentest Corp. (Woburn, MA, USA).
4-MU, a nonselective substrate of UGTs, was used as probe substrate for all UGTs except UGT1A4. Incubations with each individual enzyme were conducted using conditions previously described. There was a 5 min preincubation step at 37°C before the reaction was started by addition of UDPGA. The incubation mixtures were then centrifuged at 20,500 ×g for 15 min to obtain the supernatant. Aliquots (20 μL) were then analyzed by HPLC. The HPLC system (SHIMADZU, Kyoto, Japan) consisted of an SCL-10A system controller, two LC-10AT pumps, a SIL-10A auto injector, and a SPD-10AVP UV detector. Chromatographic separation was achieved using a Kromasil ODS column (4.6 × 150 mm I.D., 5 μm particle size) at a flow rate of 1 mL/min and UV detection at 316 nm. The mobile phase consisted of 10 mM KH2PO4, pH 2.7 (A) and acetonitrile (B). The following gradient was applied at a flow rate of 1 mL/min: 0–4 min 80% A and 20% B, 4.1–8 min 50% A and 50% B, 8.1–12 min, 30% A and 70% B. All experiments were performed in two independent experiments in duplicate.
A typical incubation mixture contained recombinant human UGTs, 5 mM MgCl2, 5 mM UDPGA, 50 μg/mg protein alamethicin, 50 mM Tris-HCl buffer (pH 7.4), and various probe substrates of UGTs in the absence or presence of different concentrations of inhibitors. […] The final concentration of DMSO in the incubation system was 1% (v/v). […]
Inhibition data from experiments were graphically represented by Dixon plots. K i values were calculated by nonlinear regression using the equations for competitive inhibition (1), noncompetitive inhibition (2), or mixed inhibition (3), [22] […] The type of inhibition was determined from the enzyme inhibition models. Goodness of fit to kinetic and inhibition models was assessed from the F statistic, r ^2 values, parameter standard error estimates, and 95% confidence intervals. […]

[2] = reported value, as fraction; cited from earlier work
[3] = cited from earlier work
[4] = tested on: CYPs; parameters: method as in PMID 16476124; details: previous studies; cited from earlier work
[5] = parameters: method as in PMID 17632044; details: after a single oral administration of Epimedium pubescens decoction; cited from earlier work

Question: What does the source list for COc1ccc(-c2oc3c(CC=C(C)C)c(O[C@@H]4O[C@H](CO)[C@@H](O)[C@H](O)[C@H]4O)cc(O)c3c(=O)c2O[C@@H]2O[C@@H](C)[C@H](O)[C@@H](O)[C@H]2O)cc1 [Icariin]?
Answer: IC50 [1]: > 100 µM; Oral bioavailability [2]: 0.12; Fraction of icariin transformed into its intestinal metabolites in the intestinal lumen [3]: about 70%; Inhibitory effect on CYPs activities [4]: no inhibitory effects

Question: Which IC50 [1] does the source give for COc1ccc(-c2oc3c(CC=C(C)C)c(O[C@@H]4O[C@H](CO)[C@@H](O)[C@H](O)[C@H]4O)cc(O)c3c(=O)c2O)cc1 [Icariside I] here?
Answer: > 100 µM

Question: With COc1ccc(-c2oc3c(CC=C(C)C)c(O)cc(O)c3c(=O)c2O)cc1 [Icaritin] as the compound, how does the IC50 [1] read?
Answer: > 100 µM

Question: And the “Reported icaritin concentration in blood” value [5]?
Answer: 1.5 nM
